Assay [1] deals with T1, Aβ 25–35 pre-formed fibrils.
T1 construct: Aβ 25–35 peptide was purchased from GenScript USA Inc; purchased GenScript USA Inc
Kind of assay: Thioflavin T assay, Phase II: disaggregation of pre-formed mature fibrils. Type of assay: biochemical. The note with it: pre-formed Aβ 25–35 fibrils with ACTPG 250 μg/ml or galantamine 50 μM. The protocol:
According to the method of Ramesh et al the anti-aggregation and disaggregation property of P. gymnospora was evaluated in two different phases. In phase I, the inhibition of aggregate formation was assessed by using oligomers. Consequently, in Phase II the disaggregation of the pre-formed fibrils were determined. Freshly prepared Aβ 25–35 (100 μM) monomer was incubated in Tris-HCl buffer pH 7.4 at 37°C for 20 h. However, after 20 h, an increase in fluorescence intensity was observed which represents the formation of oligomers. The acetone extract of P. gymnospora (ACTPG) (250 and 500 μg/ml) was added to the oligomers and subjected to incubation at 48 h for dose fixation. […] In phase I, the freshly prepared Aβ 25–35 (100 μM) was incubated with ACTPG (250 μg/ml), and the aggregation pattern was evaluated by ThT assay with the aliquots taken from the incubation mixture at 20 h and 48 h respectively. […] After that, ACTPG (250 μg/ml) was co-incubated with the pre-formed fibrils, and the disaggregation pattern was evaluated by taking the aliquots of incubation mixture at 96 h and 9 days using Thioflavin T assay using the standard Galantamine (50μM) as a positive control. […]
Thioflavin T-induced fluorescence changes were measured to quantify amyloid fibril formation by spectrofluorimeter (Microplate Analyzer) as described by. […]

Assay [2] concerns the target T2, AChE from Electric eel (Electrophorus electricus, UniProt O42275).
T2 construct: AChE from Electric eel (Type-VI-S, EC 3.1.1.7, Sigma); purchased Sigma Type-VI-S
Put plainly: AChE inhibitory assay (modified Ellman 96-well microplate). Type of assay: biochemical. As for the experimental part: (§1) ChE inhibitory activities were measured using a modified 96-well microplate assay developed by. […] After incubation, 125 μl of 3 mM DTNB was added and the total volume was made up to 300 μl with Tris- HCl buffer (pH 8.0/7.4). Enzyme activity was initiated by the addition of 50 μl of 15 mm ATCI/BTCI. […] AChE activity was expressed as U/mg of protein (1U = μmol of thiocholine iodide formed/min/mg protein). […] Percentage of inhibition of AChE/BuChE was determined by comparison of rates of reaction of samples relative to the blank (Tris-HCl buffer) using the formula, where SA is the specific activity.
(§2) % of inhibition = [(SA of control − SA of test sample) / SA of control]*100
(In general: DTNB colorimetry detects thiols as they appear.)

For assay [3], the target named is T3, BuChE from horse serum (Equus caballus, UniProt P81908).
T3 construct: BuChE from horse serum (EC 3.1.1.8, MP Biomedicals); purchased MP Biomedicals; host or cells: horse serum
Kind of assay: biochemical. The protocol:
as §1, §2

T3 sequence (P81908 whole entry): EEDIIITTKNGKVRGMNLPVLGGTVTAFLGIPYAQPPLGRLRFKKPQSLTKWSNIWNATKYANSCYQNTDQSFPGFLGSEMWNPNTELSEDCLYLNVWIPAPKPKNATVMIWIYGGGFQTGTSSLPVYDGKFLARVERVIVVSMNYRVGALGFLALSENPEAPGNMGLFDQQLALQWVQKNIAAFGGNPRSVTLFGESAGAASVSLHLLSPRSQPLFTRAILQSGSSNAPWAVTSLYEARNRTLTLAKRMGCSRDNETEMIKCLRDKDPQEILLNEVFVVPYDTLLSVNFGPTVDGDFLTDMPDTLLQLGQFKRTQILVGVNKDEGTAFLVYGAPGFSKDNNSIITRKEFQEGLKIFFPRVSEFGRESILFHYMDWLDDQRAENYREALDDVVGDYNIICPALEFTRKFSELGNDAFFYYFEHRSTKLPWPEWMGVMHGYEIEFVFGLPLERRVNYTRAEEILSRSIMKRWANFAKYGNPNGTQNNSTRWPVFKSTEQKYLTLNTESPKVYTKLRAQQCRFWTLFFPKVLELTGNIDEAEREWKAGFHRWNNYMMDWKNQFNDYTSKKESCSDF
T2 sequence (O42275 24-633): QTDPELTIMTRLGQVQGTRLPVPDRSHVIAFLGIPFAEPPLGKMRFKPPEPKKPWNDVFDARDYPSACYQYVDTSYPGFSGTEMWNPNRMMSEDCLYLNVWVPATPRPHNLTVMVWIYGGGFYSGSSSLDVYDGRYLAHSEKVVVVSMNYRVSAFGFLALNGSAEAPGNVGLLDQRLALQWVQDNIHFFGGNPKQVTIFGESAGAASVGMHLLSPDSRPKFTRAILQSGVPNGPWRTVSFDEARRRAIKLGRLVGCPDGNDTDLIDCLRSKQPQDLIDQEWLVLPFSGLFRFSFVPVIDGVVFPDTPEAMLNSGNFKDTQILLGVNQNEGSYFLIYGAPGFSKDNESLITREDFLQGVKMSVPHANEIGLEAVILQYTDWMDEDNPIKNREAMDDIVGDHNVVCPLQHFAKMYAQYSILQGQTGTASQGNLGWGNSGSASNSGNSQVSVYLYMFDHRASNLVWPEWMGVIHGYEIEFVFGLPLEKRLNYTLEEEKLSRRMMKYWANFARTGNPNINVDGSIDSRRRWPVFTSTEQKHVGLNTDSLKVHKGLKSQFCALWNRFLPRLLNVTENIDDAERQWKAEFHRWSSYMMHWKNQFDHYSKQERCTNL

Take `COc1ccc2c3c1O[C@H]1C[C@@H](O)C=C[C@@]31CCN(C)C2` [Galantamine]: the “Thioflavin T fluorescence intensity” value was 3.62 ± 0.55 AU in assay [1] (96 h, Aβ alone 4.67 ± 0.28 AU) and 2.86 ± 0.94 AU in assay [1] (9 days, Aβ alone 6.06 ± 0.47 AU).

By IC50 is commonly meant the concentration that inhibits the measured activity by half. A lower IC50 goes with higher potency. For the compound `CC(C)=CCC[C@](C)(O)[C@@H]1CC=C(C)CC1` [alpha-bisabolol, Alpha-bisabolol], the IC50 in assay [2] and in assay [3] was less than 45 µM throughout. Further, in assay [2] (read-out: maximum AChE inhibitory activity), the inhibition at 50 µg/mL is 87%. Further, the inhibition at up to 50 µg/mL in assay [3] (10–50 μg/ml tested, at 50 μg/ml, read-out: maximum BuChE inhibitory activity) was found to be 66%.
